Results from patent US11993599B2, “Therapeutic compounds” (Genentech, Inc., priority 2021, dated 2024).
Values belong to the compound of their own block, whether it stands above or below them.

Legend:
BRM = BRM (Homo sapiens, UniProt P51531); assay: Immunofluorescence assay for BRM degradation in SW1573 cells; format: cell-based; parameters: treated overnight at 4° C. with either BRM primary antibody (Cell signaling Cat #11966) or BRG primary antibody; endogenous in cells; host or cells: SW1573; settings: 20 hours incubation; for DC50: immunofluorescence mean nuclear signal, read-out: BRM IF Degradation IC50; for BRM IF Degradation Sinf (%): normalized to a known degrader control
Method in brief: (§1)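 Read-out is per-cell mean nuclear BRM or BRG1 immunofluorescence, imaged after 20 h compound exposure of SW1573 cells and normalized to a known degrader control. Concentration-response curves, fit with a floating maximum, yield degradation IC50 and Dmax.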

BRG1 = biological target: T1, BRG1 (Homo sapiens, UniProt P51532); assay: Immunofluorescence assay for BRG1 degradation in SW1573 cells; format: cell-based; settings: 20 hours incubation; for DC50: immunofluorescence mean nuclear signal, read-out: BRG1 IF Degradation IC50; for Dmax: SW1573, 20 h, normalized to a known degrader control, read-out: BRG1 IF Degradation Sinf (%)
T1 construct: either BRM primary antibody (Cell signaling Cat #11966) or BRG primary antibody (Abcam, ab 110641); endogenous in cells; host or cells: SW1573
Method in brief: as §1

Chain of BRM (P51531 whole entry): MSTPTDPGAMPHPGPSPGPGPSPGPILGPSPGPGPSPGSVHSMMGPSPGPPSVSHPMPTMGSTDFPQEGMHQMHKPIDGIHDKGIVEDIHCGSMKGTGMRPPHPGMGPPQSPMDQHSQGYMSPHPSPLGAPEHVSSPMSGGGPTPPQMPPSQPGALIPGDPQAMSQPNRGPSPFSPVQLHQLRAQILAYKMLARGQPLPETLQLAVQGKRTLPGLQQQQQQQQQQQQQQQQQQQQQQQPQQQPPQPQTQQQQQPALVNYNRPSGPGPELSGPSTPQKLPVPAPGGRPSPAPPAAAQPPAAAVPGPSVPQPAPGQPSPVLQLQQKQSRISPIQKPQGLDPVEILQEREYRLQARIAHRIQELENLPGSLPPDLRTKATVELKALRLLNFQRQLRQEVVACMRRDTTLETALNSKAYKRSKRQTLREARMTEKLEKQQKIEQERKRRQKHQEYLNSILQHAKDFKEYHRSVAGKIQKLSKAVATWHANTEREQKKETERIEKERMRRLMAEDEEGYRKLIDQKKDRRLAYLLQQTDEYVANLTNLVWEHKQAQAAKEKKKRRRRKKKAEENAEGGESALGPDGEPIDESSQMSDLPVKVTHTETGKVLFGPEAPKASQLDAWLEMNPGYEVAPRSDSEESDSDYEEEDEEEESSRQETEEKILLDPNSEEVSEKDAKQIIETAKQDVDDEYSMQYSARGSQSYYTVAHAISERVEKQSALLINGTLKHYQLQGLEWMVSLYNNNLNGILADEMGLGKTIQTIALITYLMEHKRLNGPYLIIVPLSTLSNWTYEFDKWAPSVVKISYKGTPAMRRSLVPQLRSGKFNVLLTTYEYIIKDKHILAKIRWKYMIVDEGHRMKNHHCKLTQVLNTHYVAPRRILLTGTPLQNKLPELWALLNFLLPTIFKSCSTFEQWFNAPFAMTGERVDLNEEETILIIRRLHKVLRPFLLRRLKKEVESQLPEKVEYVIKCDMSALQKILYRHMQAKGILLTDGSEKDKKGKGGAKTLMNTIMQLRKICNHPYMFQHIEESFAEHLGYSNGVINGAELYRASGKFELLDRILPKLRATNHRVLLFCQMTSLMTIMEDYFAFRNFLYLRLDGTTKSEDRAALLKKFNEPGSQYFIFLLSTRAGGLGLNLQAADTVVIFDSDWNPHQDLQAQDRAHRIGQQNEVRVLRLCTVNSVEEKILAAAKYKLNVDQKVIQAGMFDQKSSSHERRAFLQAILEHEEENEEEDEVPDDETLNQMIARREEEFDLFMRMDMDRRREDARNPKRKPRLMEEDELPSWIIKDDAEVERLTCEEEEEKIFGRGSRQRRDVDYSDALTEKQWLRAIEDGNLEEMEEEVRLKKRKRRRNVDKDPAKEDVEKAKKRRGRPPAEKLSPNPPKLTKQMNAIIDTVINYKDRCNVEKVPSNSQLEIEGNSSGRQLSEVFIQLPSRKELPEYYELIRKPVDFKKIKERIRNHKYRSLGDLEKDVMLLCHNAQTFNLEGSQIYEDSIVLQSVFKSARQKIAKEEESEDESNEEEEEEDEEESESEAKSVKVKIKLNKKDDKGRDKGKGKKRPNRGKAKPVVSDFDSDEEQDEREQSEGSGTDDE
T1 sequence (P51532 whole entry): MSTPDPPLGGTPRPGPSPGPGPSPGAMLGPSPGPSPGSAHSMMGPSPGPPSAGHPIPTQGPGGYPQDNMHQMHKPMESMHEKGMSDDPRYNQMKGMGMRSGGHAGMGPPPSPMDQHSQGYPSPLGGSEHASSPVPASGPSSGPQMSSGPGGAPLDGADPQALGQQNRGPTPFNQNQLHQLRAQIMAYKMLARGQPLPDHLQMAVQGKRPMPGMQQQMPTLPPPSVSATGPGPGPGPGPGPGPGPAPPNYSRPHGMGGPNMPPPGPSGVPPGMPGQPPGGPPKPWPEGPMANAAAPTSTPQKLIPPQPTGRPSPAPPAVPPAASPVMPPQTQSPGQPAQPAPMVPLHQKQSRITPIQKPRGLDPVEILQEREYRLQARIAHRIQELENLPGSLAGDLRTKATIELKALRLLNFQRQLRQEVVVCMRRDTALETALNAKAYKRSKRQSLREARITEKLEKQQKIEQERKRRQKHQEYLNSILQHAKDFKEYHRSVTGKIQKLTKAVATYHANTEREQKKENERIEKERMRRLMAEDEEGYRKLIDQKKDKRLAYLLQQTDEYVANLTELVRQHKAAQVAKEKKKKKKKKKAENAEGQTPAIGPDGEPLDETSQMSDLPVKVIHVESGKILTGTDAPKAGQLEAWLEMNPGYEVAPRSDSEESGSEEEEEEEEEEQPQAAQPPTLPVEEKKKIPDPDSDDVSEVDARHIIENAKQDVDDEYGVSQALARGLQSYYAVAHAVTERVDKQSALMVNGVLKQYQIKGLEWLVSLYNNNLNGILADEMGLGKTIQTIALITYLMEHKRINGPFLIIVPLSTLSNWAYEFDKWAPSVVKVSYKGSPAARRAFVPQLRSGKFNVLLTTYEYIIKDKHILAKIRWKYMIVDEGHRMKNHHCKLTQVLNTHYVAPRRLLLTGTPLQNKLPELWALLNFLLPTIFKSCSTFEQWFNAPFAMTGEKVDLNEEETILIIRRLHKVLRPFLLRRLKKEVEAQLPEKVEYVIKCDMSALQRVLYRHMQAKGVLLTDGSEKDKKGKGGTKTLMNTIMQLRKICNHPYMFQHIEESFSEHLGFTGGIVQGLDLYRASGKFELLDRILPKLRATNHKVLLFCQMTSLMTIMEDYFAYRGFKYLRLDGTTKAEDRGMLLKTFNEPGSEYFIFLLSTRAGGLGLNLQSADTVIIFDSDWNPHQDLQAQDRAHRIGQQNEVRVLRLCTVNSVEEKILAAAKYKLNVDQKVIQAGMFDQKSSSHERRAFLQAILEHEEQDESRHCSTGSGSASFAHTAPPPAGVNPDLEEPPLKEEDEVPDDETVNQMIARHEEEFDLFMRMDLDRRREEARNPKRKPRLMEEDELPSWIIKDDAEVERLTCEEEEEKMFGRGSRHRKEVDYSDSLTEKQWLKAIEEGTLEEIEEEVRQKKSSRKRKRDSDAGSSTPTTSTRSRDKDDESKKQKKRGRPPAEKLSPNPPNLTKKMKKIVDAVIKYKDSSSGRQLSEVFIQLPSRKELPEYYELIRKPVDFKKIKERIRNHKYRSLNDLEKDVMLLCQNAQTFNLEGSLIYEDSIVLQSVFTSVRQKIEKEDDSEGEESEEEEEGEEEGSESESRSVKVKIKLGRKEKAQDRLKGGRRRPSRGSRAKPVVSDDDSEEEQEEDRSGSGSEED

Compound: Nc1nnc(-c2ccccc2O)cc1N1CC2CCC(C1)N2c1ccnc(C#CCN2CC3COC(C3)C2)c1 (stereo not shown) [Compound 98, 2-[6-amino-5-[8-[2-[3-(6-oxa-3-azabicyclo[3.2.1]octan-3-yl)prop-1-ynyl]-4-pyridyl]-3,8-diazabicyclo[3.2.1]octan-3-yl]pyridazin-3-yl]phenol]
DC50 (BRM): 10 to 100 nM
BRM IF Degradation Sinf (%) (BRM): E (E indicates −30%-−70%)
DC50 (BRG1): > 100 nM

Compound: Nc1nnc(-c2ccccc2O)cc1N1CC2CCC(C1)N2c1ccnc(C#CCN2CC(C3CC3)C2)c1 [Compound 150, 2-[6-amino-5-[8-[2-[3-(3-cyclopropylazetidin-1-yl)prop-1-ynyl]-4-pyridyl]-3,8-diazabicyclo[3.2.1]octan-3-yl]pyridazin-3-yl]phenol]
DC50 (BRM): < 10 nM
BRM IF Degradation Sinf (%) (BRM): F (F indicates −71%-−120%)
DC50 (BRG1): < 10 nM
Dmax (BRG1): 30 to 70%

Compound: Nc1nnc(-c2ccccc2O)cc1N1CC2CCC(C1)N2c1ccnc(C#CCN2CCOC(F)(F)C2)c1 [Compound 112, 2-[6-amino-5-[8-[2-[3-(2,2-difluoromorpholin-4-yl)prop-1-ynyl]-4-pyridyl]-3,8-diazabicyclo[3.2.1]octan-3-yl]pyridazin-3-yl]phenol]
DC50 (BRM): < 10 nM
BRM IF Degradation Sinf (%) (BRM): E (E indicates −30%-−70%)
DC50 (BRG1): 10 to 100 nM
Dmax (BRG1): 0 to 30%

Compound: Nc1nnc(-c2ccccc2O)cc1N1CC2CCC(C1)N2c1ccnc(C#CCN2CC(N3CCOCC3)C2)c1 [Compound 229, 2-[6-amino-5-[8-[2-[3-(3-morpholinoazetidin-1-yl)prop-1-ynyl]-4-pyridyl]-3,8-diazabicyclo[3.2.1]octan-3-yl]pyridazin-3-yl]phenol]
DC50 (BRM): 10 to 100 nM
BRM IF Degradation Sinf (%) (BRM): F (F indicates −71%-−120%)
DC50 (BRG1): 10 to 100 nM
Dmax (BRG1): 30 to 70%

Compound: Nc1nnc(-c2ccccc2O)cc1N1CC2CCC(C1)N2c1ccnc(C#CCN2CC3CCCC2C3)c1 (stereo not shown) [Compound 125, 2-[6-amino-5-[8-[2-[3-(6-azabicyclo[3.2.1]octan-6-yl)prop-1-ynyl]-4-pyridyl]-3,8-diazabicyclo[3.2.1]octan-3-yl]pyridazin-3-yl]phenol]
DC50 (BRM): < 10 nM
BRM IF Degradation Sinf (%) (BRM): E (E indicates −30%-−70%)
DC50 (BRG1): < 10 nM
Dmax (BRG1): 30 to 70%

Compound: Nc1nnc(-c2ccccc2O)cc1N1CC2CCC(C1)N2c1ccnc(C#CCN2CCC(F)C2)c1 (stereo not shown) [Compound 133, 2-[6-amino-5-[8-[2-[3-(3-fluoropyrrolidin-1-yl)prop-1-ynyl]-4-pyridyl]-3,8-diazabicyclo[3.2.1]octan-3-yl]pyridazin-3-yl]phenol]
DC50 (BRM): < 10 nM
BRM IF Degradation Sinf (%) (BRM): E (E indicates −30%-−70%)
DC50 (BRG1): < 10 nM
Dmax (BRG1): 0 to 30%

Compound: COC1CN(CC#Cc2cc(N3C4CCC3CN(c3cc(-c5ccccc5O)nnc3N)C4)ccn2)C1 [Compound 174, 2-[6-amino-5-[8-[2-[3-(3-methoxyazetidin-1-yl)prop-1-ynyl]-4-pyridyl]-3,8-diazabicyclo[3.2.1]octan-3-yl]pyridazin-3-yl]phenol]
DC50 (BRM): 10 to 100 nM
BRM IF Degradation Sinf (%) (BRM): F (F indicates −71%-−120%)
DC50 (BRG1): 10 to 100 nM
Dmax (BRG1): 30 to 70%

Compound: Nc1nnc(-c2ccccc2O)cc1N1CC2CCC(C1)N2c1ccnc(C#CCN2CCC3(CC2)CC3)c1 [Compound 136, 2-(5-(8-(2-(3-(6-azaspiro[2.5]octan-6-yl)prop-1-yn-1-yl)pyridin-4-yl)-3,8-diazabicyclo[3.2.1]octan-3-yl)-6-aminopyridazin-3-yl)phenol]
DC50 (BRM): < 10 nM
BRM IF Degradation Sinf (%) (BRM): E (E indicates −30%-−70%)
DC50 (BRG1): < 10 nM
Dmax (BRG1): 30 to 70%

Compound: Nc1nnc(-c2ccccc2O)cc1N1CC2CCC(C1)N2c1ccnc(C#CCN2CCC(F)(F)C2)c1 [Compound 43, 2-[6-amino-5-[8-[2-[3-(3,3-difluoropyrrolidin-1-yl)prop-1-ynyl]-4-pyridyl]-3,8-diazabicyclo[3.2.1]octan-3-yl]pyridazin-3-yl]phenol]
DC50 (BRM): 10 to 100 nM
BRM IF Degradation Sinf (%) (BRM): E (E indicates −30%-−70%)
DC50 (BRG1): < 10 nM
Dmax (BRG1): 0 to 30%

DC50 (BRM): < 10 nM
BRM IF Degradation Sinf (%) (BRM): E (E indicates −30%-−70%)
DC50 (BRG1): 10 to 100 nM
Dmax (BRG1): 30 to 70%
Compound: Nc1nnc(-c2ccccc2O)cc1N1CC2(CN(c3ccnc(C#CCN4CCCCCC4)c3)C2)C1 [Compound 251, 2-[6-amino-5-[6-[2-[3-(azepan-1-yl)prop-1-ynyl]-4-pyridyl]-2,6-diazaspiro[3.3]heptan-2-yl]pyridazin-3-yl]phenol]

Compound: COC(=O)C1CN(CC#Cc2cc(N3C4CCC3CN(c3cc(-c5ccccc5O)nnc3N)C4)ccn2)C1 [Compound 225]
DC50 (BRM): 10 to 100 nM
BRM IF Degradation Sinf (%) (BRM): E (E indicates −30%-−70%)
DC50 (BRG1): < 10 nM
Dmax (BRG1): 0 to 30%

Compound: Nc1nnc(-c2ccccc2O)cc1N1CC2CCC(C1)N2c1ccnc(C#CCN2C[C@H]3CCO[C@H]3C2)c1 [Compound 113, 2-[5-[8-[2-[3-[(3aR,6aR)-2,3,3a,4,6,6a-hexahydrofuro[2,3-c]pyrrol-5-yl]prop-1-ynyl]-4-pyridyl]-3,8-diazabicyclo[3.2.1]octan-3-yl]-6-amino-pyridazin-3-yl]phenol]
DC50 (BRM): 10 to 100 nM
BRM IF Degradation Sinf (%) (BRM): E (E indicates −30%-−70%)
DC50 (BRG1): < 10 nM
Dmax (BRG1): 0 to 30%

Compound: Nc1nnc(-c2ccccc2O)cc1N1CC2CCC(C1)N2c1ccnc(C#CCN2CC(Oc3ccccc3)C2)c1 [Compound 226, 2-[6-amino-5-[8-[2-[3-(3-phenoxyazetidin-1-yl)prop-1-ynyl]-4-pyridyl]-3,8-diazabicyclo[3.2.1]octan-3-yl]pyridazin-3-yl]phenol]
DC50 (BRM): 10 to 100 nM
BRM IF Degradation Sinf (%) (BRM): E (E indicates −30%-−70%)
DC50 (BRG1): < 10 nM
Dmax (BRG1): 30 to 70%

Compound: Nc1nnc(-c2ccccc2O)cc1N1CC2CCC(C1)N2c1ccnc(C#CCN2C[C@@H]3C[C@@H](O)[C@H]2C3)c1 [Compound 109, (1R,4S,6R)-2-[3-[4-[3-[3-amino-6-(2-hydroxyphenyl)pyridazin-4-yl]-3,8-diazabicyclo[3.2.1]octan-8-yl]-2-pyridyl]prop-2-ynyl]-2-azabicyclo[2.2.1]heptan-6-ol]
DC50 (BRM): < 10 nM
BRM IF Degradation Sinf (%) (BRM): E (E indicates −30%-−70%)
DC50 (BRG1): < 10 nM
Dmax (BRG1): 30 to 70%

Compound: CN1CC2(CCN(CC#Cc3cc(N4C5CCC4CN(c4cc(-c6ccccc6O)nnc4N)C5)ccn3)C2)C1 [Compound 156, 2-[6-amino-5-[8-[2-[3-(2-methyl-2,6-diazaspiro[3.4]octan-6-yl)prop-1-ynyl]-4-pyridyl]-3,8-diazabicyclo[3.2.1]octan-3-yl]pyridazin-3-yl]phenol]
DC50 (BRM): > 100 nM
BRM IF Degradation Sinf (%) (BRM): E (E indicates −30%-−70%)
DC50 (BRG1): > 100 nM
Dmax (BRG1): 30 to 70%

Compound: Nc1nnc(-c2ccccc2O)cc1N1CC2CCC(C1)N2c1ccnc(C#CCN2CC(F)(CO)C2)c1 [Compound 171, 2-[6-amino-5-[8-[2-[3-[3-fluoro-3-(hydroxymethyl)azetidin-1-yl]prop-1-ynyl]-4-pyridyl]-3,8-diazabicyclo[3.2.1]octan-3-yl]pyridazin-3-yl]phenol]
DC50 (BRM): > 100 nM
BRM IF Degradation Sinf (%) (BRM): E (E indicates −30%-−70%)
DC50 (BRG1): > 100 nM

Compound: CN1C[C@@H]2C[C@H]1CN2CC#Cc1cc(N2C3CCC2CN(c2cc(-c4ccccc4O)nnc2N)C3)ccn1 [Compound 164, 2-[6-amino-5-[8-[2-[3-[(1S,4S)-5-methyl-2,5-diazabicyclo[2.2.1]heptan-2-yl]prop-1-ynyl]-4-pyridyl]-3,8-diazabicyclo[3.2.1]octan-3-yl]pyridazin-3-yl]phenol]
DC50 (BRM): 10 to 100 nM
BRM IF Degradation Sinf (%) (BRM): E (E indicates −30%-−70%)
DC50 (BRG1): > 100 nM
Dmax (BRG1): 0 to 30%

Compound: Nc1nnc(-c2ccccc2O)cc1N1CC2CCC(C1)N2c1ccnc(C#CCN2CCC23CCC3)c1 [Compound 235, 2-[6-amino-5-[8-[2-[3-(1-azaspiro[3.3]heptan-1-yl)prop-1-ynyl]-4-pyridyl]-3,8-diazabicyclo[3.2.1]octan-3-yl]pyridazin-3-yl]phenol]
DC50 (BRM): 10 to 100 nM
BRM IF Degradation Sinf (%) (BRM): F (F indicates −71%-−120%)
DC50 (BRG1): < 10 nM
Dmax (BRG1): 30 to 70%

Compound: Nc1nnc(-c2ccccc2O)cc1N1CC2CCC(C1)N2c1ccnc(C#CCN2CCC(O)CC2)c1 [Compound 71, 1-[3-[4-[3-[3-amino-6-(2-hydroxyphenyl)pyridazin-4-yl]-3,8-diazabicyclo[3.2.1]octan-8-yl]-2-pyridyl]prop-2-ynyl]piperidin-4-ol]
DC50 (BRM): 10 to 100 nM
BRM IF Degradation Sinf (%) (BRM): E (E indicates −30%-−70%)
DC50 (BRG1): < 10 nM
Dmax (BRG1): 30 to 70%

Compound: N#CCC1CN(CC#Cc2cc(N3C4CCC3CN(c3cc(-c5ccccc5O)nnc3N)C4)ccn2)C1 [Compound 152, 2-[1-[3-[4-[3-[3-amino-6-(2-hydroxyphenyl)pyridazin-4-yl]-3,8-diazabicyclo[3.2.1]octan-8-yl]-2-pyridyl]prop-2-ynyl]azetidin-3-yl]acetonitrile]
DC50 (BRM): < 10 nM
BRM IF Degradation Sinf (%) (BRM): E (E indicates −30%-−70%)
DC50 (BRG1): < 10 nM
Dmax (BRG1): 30 to 70%

Compound: COCC1(O)CCCN(CC#Cc2cc(N3C4CCC3CN(c3cc(-c5ccccc5O)nnc3N)C4)ccn2)CC1 (stereo not shown) [Compound 207, 1-[3-[4-[3-[3-amino-6-(2-hydroxyphenyl)pyridazin-4-yl]-3,8-diazabicyclo[3.2.1]octan-8-yl]-2-pyridyl]prop-2-ynyl]-4-(methoxymethyl)azepan-4-ol]
DC50 (BRM): 10 to 100 nM
BRM IF Degradation Sinf (%) (BRM): E (E indicates −30%-−70%)
DC50 (BRG1): > 100 nM
Dmax (BRG1): 71 to 120%
